Experimental data published in patent publication EP2626073A1, “Compound for use in the prevention and/or treatment of a neurogenerative disease or a disease involving an activation of phosphodiesterase-4 (PDE4)” (Harmonic Pharma, priority 2012, dated 2013).

Assays:
[1] = molecular target: PDE4; assay: PDE4 isolated enzyme two-step radioenzymatic PDE assay; assay type: biochemical; conditions: 1 µM cAMP substrate, 30°C, 30 min; read-out: inhibition concentration value (IC50)
[2] = system: Rat cortical neurons; assay: Aβ oligomer-induced neuronal death, MTT assay; assay type: cell-based, Wistar rat; conditions: 24 h
Procedure: Cell culture: Cortical neurons from embryonic day 16-17 Wistar rat fetuses were prepared as follows. Dissociated cortical cells were plated at 4.5-5.0 10^4 cells/cm^2 in plastic dishes precoated with 1.5 mg/mL polyornithine (Sigma). Cells were cultured in a chemically defined Dulbecco's modified eagle's/F12 medium free of serum (Gibco) and supplemented with hormones, proteins and salts. Cultures were kept at 35°C in a humidified 5% CO2 atmosphere, and at 6-7 DIV, cortical population was determined to be at least 97% neuronal by immunostaining.
Preparation of low-n β-amyloid (Aβ) oligomers: The peptide used is Aβ1-42 from Bachem (ref H1368, batch number: 1025459). The oligomeric preparation contains a mixture of stable dimers, trimers and tetramers of Aβ1-42 peptide, as well as monomeric forms of the peptide.
Preparation of tivozanib solution: Tivozanib was dissolved in DMSO. A stock solution (10 mM DMSO) was prepared, and aliquots were stored at -20 °C before use.
Treatment and measurement of cell viability: All experiments were done in 48 well plates. […] Following 24h of incubation, neuronal viability was monitored using the MTT assay (Garcia et al., The Journal of Neuroscience, June 2,2010, 30(22), 7516-7527; Desbene et al., Neurobiology of Aging, 33 (2012) 1123.e17-1123.e-29). Data were obtained from one experiment with 4 determinations each and expressed as means + SD.

[3] = system: cAMP level in HEK293 cells; assay: Measurement of cAMP level by ELISA; assay type: cell-based
Procedure: Measurement of cAMP level: HEK293 cells were cultured in DMEM medium containing 10 % FCS. Cells were plated in 12-well plates at a density of 400.000 cells per well and cultured for 24h at 37°C in a humidified 6% CO2 atmosphere. Cells were then incubated for 1 h with increasing concentrations of tivozanib and then treated with vehicle or 25 µM forskolin for 15 minutes. Following washing steps and cell lysis, cellular level of cAMP level was monitored using an ELISA assay (Cyclic AMP XP assay kit - Cell signaling). Data are from 2 experiments performed in duplicate. Data are represented as fold increase of cAMP as compared to experiment using forskolin only, designed as 1.0 (figure 7).
Effects of tivozanib on cAMP level in HEK293 cells: In order to evaluate the potential effect of tivozanib on PDE4 activity in living cells, the HEK293 cell line was used. These cells are widely used for identification and validation of PDE4 modulators in mild as well as high throughput screening assays. Indeed, the control of cAMP level and hydrolysis in HEK293 cells are predominantly supported by PDE4.

[4] = system: Male C57BL/6 mice; assay: Y-maze test of spatial working memory after icv Aβ oligomers; assay type: in vivo
Procedure: Animals: All animal experiments were carried out according to the National Institute of Health (NIH) guidelines for the care and use of laboratory animals, and approved by the French Ministry for Research and Technology. Animals were housed at a standard temperature (22±1°C) and in a light-controlled environment (lights on from 7 am to 8 pm) with ad libitum access to food and water. Upon arrival, Male C57BL/6 mice (C57BL/6J Rj, ref SC-CJ-12w-M, Janvier, France) were group housed. From 1 week before the experiment started and until the end of the experiment, mice were individually housed. Animals were monitored twice-a-day by laboratory personnel (8 am and 4 pm). […]
Surgery and intracerebroventricular (icv) infusion of low-n Aβ oligomers: Immediate spatial working memory performance was assessed by recording spontaneous alternation behavior in a Y-maze system, as previously described (Youssef et al., Neurobiology of Aging, 29 (2008) 1319-1333; Garcia et al., The Journal of Neuroscience, June 2,2010, 30(22) 7516-7527). […]
Investigation of the spatial working memory - Y maze test: Immediate spatial working memory performance was assessed by recording spontaneous alternation behavior in a Y-maze system, as previously described (Youssef et al., 2008; Garcia et al., 2010, see references above). […]

| Compound | IC50 [1] [µM] | Aβ oligomer-induced cell death (cell viability, MTT) ([2]; tivozanib up to 10 µM added simultaneously with 1 µM Aβ1-42 oligomers) | cAMP level ([3]; absence of forskolin, increasing concentrations up to 50 µM, 1 h) | cAMP level ([3]; presence of 25 µM forskolin for 15 minutes, increasing concentrations, 1 h pre-incubation) | behavior and spontaneous alternation performance ([4]; group C: 30 mg/kg/day per os, vehicle icv, test day +4) | spatial working memory (spontaneous alternation) ([4]; group D: 30 mg/kg/day per os day -2 to +4, Aβ oligomers 50 pmol icv day 0, test day +4) | decrease of cell viability ([2]; 1 µM Aβ1-42 oligomers alone, figure 6B CTRL) [%] |
| --- | --- | --- | --- | --- | --- | --- | --- |
| COc1cc2nccc(Oc3ccc(NC(=O)Nc4cc(C)on4)c(Cl)c3)c2cc1OC [tivozanib, N-{2-chloro-4-[(6,7-dimethoxy-4-quinolyl)oxy]-phenyl}-N'-(5-methyl-3-isoxazolyl)urea] | 4.8 | protected cells towards Aβ oligomer-induced cell death | did not result in an increase of cAMP level | dose-response accumulation of cAMP | displayed a normal behavior | significantly improved spatial working memory | – |
| Aβ1-42 oligomers | – | – | – | – | – | – | ~40 |
